The numbers were not newly measured in patent publication US20250345315A1, “Dispenseable formulation for active pharmaceutical ingredients” (CurifyLabs Oy, priority 2024, published 2025), which cites them from elsewhere.

Counter-ions that a name gives are not always drawn.

For this data set the following is noted: permeability/solubility class per ICH M9 guideline.
Turning to `CC(=O)Nc1ccc(O)cc1` [Paracetamol], the Class entry is on record as “I”. As for `C[C@]12C=CC(=O)C=C1CC[C@@H]1[C@@H]2[C@@H](O)C[C@@]2(C)[C@H]1CC[C@]2(O)C(=O)CO` [Prednisolone], the Class result was “I”.

As to `CC(C)NCC(O)COc1ccc(COCCOC(C)C)cc1` (centres unmarked) [Bisoprolol fumarate], the Class entry is “I”. Consider `CC(=O)Oc1ccccc1C(=O)O` [Acetylsalicylic acid], for which the Class result is “I”. For `CC(C)NCC(O)COc1cccc2ccccc12` (centres unmarked) [Propranolol HCl], the Class entry is on record as “I”.
